Experiments:
Assay in all cases: relative viability (nuclei count vs DMSO), 5 days (fraction); higher = more cells survive
[1] = compound: Cc1nc(Nc2ncc(C(=O)Nc3c(C)cccc3Cl)s2)cc(N2CCN(CCO)CC2)n1 [Dasatinib] + CC(C)C[C@H](NC(=O)[C@H](Cc1ccccc1)NC(=O)c1cnccn1)B(O)O [Bortezomib] (partner 0.002 µM)
In short: (§1)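 One day after seeding in 1536-well plates, lung cancer cell lines were dosed by pin tool. Dosing was either single-drug or a fixed anchor-drug dose plus five library-drug doses (not always all listed) in √10 steps. After 5 days, nuclei were stained in one fix-and-stain step and counted on 4× images, and relative viability is the nuclei count of treated wells over that of vehicle wells, given as the median of duplicate plates.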

[2] = compound: Cc1nc(Nc2ncc(C(=O)Nc3c(C)cccc3Cl)s2)cc(N2CCN(CCO)CC2)n1 [Dasatinib] + C[C@@H](Oc1cc(-c2cnn(C3CCNCC3)c2)cnc1N)c1c(Cl)ccc(F)c1Cl [Crizotinib] (partner 1 µM)
In short: as §1

[3] = compound: Cc1ccc(C(=O)Nc2cccc(C(F)(F)F)c2)cc1Nc1cncc(C(N)=O)c1 [ALW-II-49-7] + CS(=O)(=O)CCNCc1ccc(-c2ccc3ncnc(Nc4ccc(OCc5cccc(F)c5)c(Cl)c4)c3c2)o1 [Lapatinib] (partner 2 µM)
In short: as §1

[4] = compound: C1CC1C(=O)NC2=NNC3=C2C=CC(=C3)C4=CC(=CC=C4)C(=O)NC5CC5 [XMD13-2] + C[C@@H](Oc1cc(-c2cnn(C3CCNCC3)c2)cnc1N)c1c(Cl)ccc(F)c1Cl [Crizotinib] (partner 1 µM)
In short: as §1

Cell Line	relative viability ([1]; first compound 0.005 µM)	relative viability ([1]; first compound 0.01581 µM)	relative viability ([1]; first compound 0.05 µM)	relative viability ([1]; first compound 0.1581 µM)	relative viability ([1]; first compound 0.5 µM)	relative viability ([2]; first compound 0.005 µM)	relative viability ([2]; first compound 0.01581 µM)	relative viability ([2]; first compound 0.05 µM)	relative viability ([2]; first compound 0.1581 µM)	relative viability ([2]; first compound 0.5 µM)	relative viability ([3]; first compound 0.08 µM)	relative viability ([3]; first compound 0.253 µM)	relative viability ([3]; first compound 0.8 µM)	relative viability ([3]; first compound 2.53 µM)	relative viability ([3]; first compound 8 µM)	relative viability ([4]; first compound 0.05 µM)	relative viability ([4]; first compound 0.1581 µM)	relative viability ([4]; first compound 0.5 µM)	relative viability ([4]; first compound 1.581 µM)	relative viability ([4]; first compound 5 µM)
HCC-44	0.857	0.857	0.993	0.894	0.45	0.86	0.904	0.945	0.36	0.213	0.967	1.04	0.995	0.973	0.923	0.789	0.814	0.75	0.772	0.755
HCC-78	0.419	0.381	0.463	0.385	0.225	0.314	0.289	0.25	0.158	0.145	0.779	0.957	0.993	0.878	0.623	0.373	0.356	0.34	0.35	0.309
HCC-366	0.989	0.738	0.637	0.632	0.407	0.374	0.18	0.158	0.0803	0.0691	1.21	1.32	1	1.09	1.13	0.616	0.527	0.688	0.529	0.65
HCC-827	1.08	1.03	1.07	0.981	0.48	0.924	0.82	0.807	0.385	0.145	0.17	0.237	0.189	0.178	0.175	0.974	0.923	0.906	0.807	0.682
HOP-62	0.875	0.674	0.643	0.864	0.39	1.16	0.966	0.91	0.816	0.165	1.17	1.24	1.1	0.806	0.639	0.871	0.889	0.933	0.939	0.439
IA-LM	1.14	0.882	1.03	0.766	0.615	1.05	1.06	1.45	0.674	0.442	0.83	0.906	0.645	0.152	0.169	0.674	0.794	0.65	0.664	0.528
LC-2-ad	0.582	0.985	1.01	0.871	0.36	0.416	0.329	0.326	0.257	0.2	0.812	0.96	0.932	0.947	0.753	0.468	0.449	0.467	0.443	0.48
LCLC-97TM1	0.525	0.561	0.735	0.665	0.461	0.336	0.485	0.307	0.238	0.146	1.03	1.06	1.06	0.842	1.01	0.432	0.318	0.265	0.374	0.256
LCLC-103H	0.987	1.06	1	0.918	0.613	0.992	1.05	0.968	0.734	0.488						1.05	1.01	1.18	1	1.14
LK-2						0.266	0.209	0.222	0.189	0.179	1.01	0.778	0.919	0.567	0.825	0.214	0.219	0.25	0.207	0.227
LOU-NH91	0.477	0.477	0.479	0.485	0.487	0.777	0.658	0.691	0.498	0.354	0.738	0.809	0.742	0.589	0.699	0.791	0.659	0.769	0.727	0.782
LU99A	1.11	0.973	1.03	0.812	0.573	0.538	0.458	0.473	0.274	0.301	1.03	0.919	0.739	1.12	0.999	0.581	0.489	0.558	0.429	0.393
NCI-H358						0.507	0.437	0.349	0.282	0.194	0.518	0.387	0.423	0.538	0.5	0.77	0.546	0.736	0.423	0.324
NCI-H441	0.487	0.613	0.511	0.734	0.172	0.62	0.626	0.617	0.309	0.162						0.842	0.715	0.875	0.656	0.578
NCI-H1395											0.869	1.21	1.05	0.967	0.929					
NCI-H1793											0.811	0.708	0.796	0.787	0.988					
NCI-H1944						1.06	0.847	0.779	0.327	0.233	0.82	0.915	0.843	0.889	0.623	1.42	1.11	1.14	1.35	1.09
NCI-H2170						1.1	0.94	0.84	0.547	0.523	0.313	0.284	0.264	0.302	0.302	1.27	1.17	1.34	1.19	1.16
SK-MES-1						0.968	0.937	0.93	0.372	0.212	0.481	0.458	0.477	0.487	0.474	1.14	1.06	1.04	0.93	1.02
